Literature values in article PMC8230491 (Pharmaceuticals, 2021).

Conditions: KET COOH; protonated LYS γ-NH2; no reference given

pKa: 10.29
SMILES: NCCCC[C@H](N)C(=O)O [LYS, lysine]
